What was measured:
Assay in all cases: relative viability (nuclei count vs DMSO), 5 days (fraction); higher = more cells survive
Vorinostat + Bortezomib = compound: O=C(CCCCCCC(=O)Nc1ccccc1)NO [Vorinostat] + CC(C)C[C@H](NC(=O)[C@H](Cc1ccccc1)NC(=O)c1cnccn1)B(O)O [Bortezomib] (partner 0.002 µM)
How it was run: (§1)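 After 5 days of treatment, lung cancer cells in 1536-well plates were fixed and stained in a single step (final 0.05% Triton X-100, 1% formaldehyde, 1 ug/ml Hoechst) and their nuclei counted on 4× images. Treatment had been applied by pin tool the day after seeding as one drug alone or as a fixed anchor-drug dose with five library-drug doses (not always all listed) in √10 steps. Relative viability is the nuclei count of treated wells divided by that of vehicle wells, and values are medians of duplicate plates.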

Vorinostat + Navitoclax = compound: O=C(CCCCCCC(=O)Nc1ccccc1)NO [Vorinostat] + CC1(C)CCC(c2ccc(Cl)cc2)=C(CN2CCN(c3ccc(C(=O)NS(=O)(=O)c4ccc(N[C@H](CCN5CCOCC5)CSc5ccccc5)c(S(=O)(=O)C(F)(F)F)c4)cc3)CC2)C1 [Navitoclax] (partner 0.5 µM)
How it was run: as §1

Vorinostat + Alpelisib = compound: O=C(CCCCCCC(=O)Nc1ccccc1)NO [Vorinostat] + Cc1nc(NC(=O)N2CCC[C@H]2C(N)=O)sc1-c1ccnc(C(C)(C)C(F)(F)F)c1 [Alpelisib] (partner 2 µM)
How it was run: as §1

Vorinostat + Decitabine = compound: O=C(CCCCCCC(=O)Nc1ccccc1)NO [Vorinostat] + Nc1ncn([C@H]2C[C@H](O)[C@@H](CO)O2)c(=O)n1 [Decitabine] (partner 2 µM)
How it was run: as §1

Cell Line	relative viability (Vorinostat + Bortezomib; first compound 0.253 µM)	relative viability (Vorinostat + Bortezomib; first compound 0.8 µM)	relative viability (Vorinostat + Bortezomib; first compound 2.53 µM)	relative viability (Vorinostat + Bortezomib; first compound 8 µM)	relative viability (Vorinostat + Navitoclax; first compound 0.253 µM)	relative viability (Vorinostat + Navitoclax; first compound 0.8 µM)	relative viability (Vorinostat + Navitoclax; first compound 2.53 µM)	relative viability (Vorinostat + Navitoclax; first compound 8 µM)	relative viability (Vorinostat + Alpelisib; first compound 0.253 µM)	relative viability (Vorinostat + Alpelisib; first compound 0.8 µM)	relative viability (Vorinostat + Alpelisib; first compound 2.53 µM)	relative viability (Vorinostat + Alpelisib; first compound 8 µM)	relative viability (Vorinostat + Decitabine; first compound 0.253 µM)	relative viability (Vorinostat + Decitabine; first compound 0.8 µM)	relative viability (Vorinostat + Decitabine; first compound 2.53 µM)	relative viability (Vorinostat + Decitabine; first compound 8 µM)
NCI-H2087	0.739	0.608	0.159	0.115	1.05	0.959	0.238	0.189	1.03	1.06	0.393	0.134	0.271	0.207	0.105	0.051
NCI-H1666	0.798	0.461	0.251	0.189	0.845	0.652	0.322	0.235	0.962	0.586	0.245	0.156	0.703	0.654	0.548	0.329
201T	1.11	1.1	1.1	0.641	1.24	1.25	1.2	0.472	0.965	0.982	0.751	0.309	0.845	0.874	0.679	0.266
PC-3 [JPC-3]	0.846	0.85	0.398	0.216	0.655	0.676	0.398	0.247	1.01	0.979	0.572	0.259	0.807	0.71	0.429	0.381
LCLC-97TM1	0.724	0.413	0.121	0.0563		0.298	0.289	0.0998		0.26	0.158	0.114	0.236	0.264	0.129	0.0801
HOP-62	1.25	0.434	0.328	0.0711	0.969	0.779	0.215	0.0581	1.25	0.947	0.49	0.0804	0.17	0.209	0.169	0.0871
LXF-289	1.08	0.923	0.348	0.057	1.04	0.963	0.279	0.0872	1.1	1.04	0.351	0.0687	0.328	0.37	0.229	0.0489

From the supplement of paper PMC10307832
